# Test results as given in patent publication US8273775B2, “Non-steroidal brassinosteroid mimetic” (priority 2006, dated 2012).
# How the values were obtained:
# [1] = tested on: bri1-116 plants grown in soil; assay: Rescue of soil-grown mutants by watering; type: in vivo, Arabidopsis thaliana; conditions: watered with 2 ml 300 μM ABRASIN per day
# Protocol: FIG. 15: Phenotype rescue of brit-116 and cpd mutants. (A.) The mutant and Col-0 plants were germinated on MS+DMSO medium till day 5 and afterwards transferred on MS supplemented with DMSO, 1 μM BL or 30 μM ABRASIN until day 11. Treatment with BL rescues the cpd mutant phenotype but not bri1-116 while ABRASIN rescues both mutants. […] BL: brassinolide; BIK: abrasin.
# Col-0, the null BR signaling bri1-116 (Friedrichsen et al., 2000) and BR biosynthetic cpd (Szekeres et al., 1996) mutants were subjected to phenotype rescue analysis by treatments with BL and ABRASIN. As a negative control, dimethylsulfoxide (DMSO) was used. Plants were germinated in vitro for 5 days on ½ MS containing DMSO medium and from day 6th to day 11th they were transferred on medium supplemented with BL (10 nM, 100 nM, 1000 nM), ABRASIN (5 μM, 10 μM, 30 μM) or DMSO. Cotyledons and leaves were collected for flowcytometric analysis at the 11th day (i.e. 6 days of treatments). Samples for β-glucuronidase (GUS) assay were taken on day 6th (i.e. 1 day treatments), 8th (i.e. 3 days treatments), 10th (i.e. 5 days treatments). Rescue of soil-grown mutants at different growth stages was checked by watering bri1-116 and cpd mutants with either BL or 2 ml 300 μM ABRASIN per day.
# [2] = tested on: BR-biosynthetic, BR signaling and BR-induced genes; assay: Real time PCR of BR pathway genes; type: in vivo, Arabidopsis thaliana
# Protocol: FIG. 7: Q-PCR analysis of genes involved in BR biosynthesis. WT Arabidopsis plants were treated with abrasin (indicated as I5) for 2 hours at a concentration of 30 μM and/or with CHX at a concentration of 30 μM and RNA was extracted from whole plants.
# FIG. 8: A: Western Blot analysis of the BES1 protein in 35S:BES1:GFP plants treated with BL and abrasin (indicated as I5 throughout the figure) (A); MG132 with BL or abrasin (B); a time course with abrasin (C) and a concentration gradient with abrasin (D). B: Abrasin and BL induce similar transcriptional regulation of the BR pathway.
# RNA was extracted with the RNeasy kit. Poly(dT) cDNA was prepared from […] of total RNA with Superscript III reverse transcriptase (Invitrogen) and quantified on an LightCycler 480 apparatus (Roche) with the SYBR Green I Master kit (Roche) according to the manufacturer's instructions. Target quantifications were performed with specific primer pairs designed with the Beacon Designer 4.0 (Premier Biosoft International). All PCRs were performed in triplicate.
# The primers used to quantify gene expression levels were for BAS 1: 5′-[…]-3′ and 5′-[…]-3′; BR6Ox1: 5′-TGGCCAATCTTTGGCGAA-3′ and 5′-[…]-3′; BR6Ox2: 5′-[…]-3′ and 5′-[…]-3′; BRI1: 5′-[…]-3′ and 5′-[…]-3′; CPD: 5′-[…]-3′ and 5′-[…]-3′; DWF4: 5′-[…]-3′ and 5′-[…]-3′ ROT3: 5′-ATTGGCGCGTTCCTCAGAT-3′ and 5′-[…]-3′; BES1: 5′-[…]-3′ and 5′-[…]-3′; BIN2: 5′-[…]-3′ and 5′-[…]-3′; BSU 1: 5′-[…]-3′ and 5′-[…]-3′; BZR1: 5′-[…]-3′ and 5′-[…]-3′; CDKA1; 1: 5′-[…]-3′ and 5′-[…]-3′; EEF1α: 5′-[…]-3′ and 5′-[…]-3′; BKI1: 5′-GCTCCGGCGTCGATGA-3′ and 5′-[…]-3′.
# [3] = tested on: group II GSK-3 kinases (ASKs) including BIN2; assay: ASK kinase assay with MBP as substrate, group II; type: biochemical, Arabidopsis; conditions: 10 μM abrasin
# Protocol: Coomassie staining was used as a loading control. b, Autoradiography of kinase assays with nine ASKs with MBP as a substrate in the presence or absence of 10 μM abrasin. The second member of group IV, ASKκ, had no kinase activity and was not included in the analysis. c, Autoradiography of kinase assays with AtMPK4, AtMPK6 and MBP as a substrate (left) and with AtAUR1 kinase and histone H3 as a substrate (right) in the presence or absence of 10 μM abrasin.
# For in vitro kinase assays, MBP, MBP-BES1, and MBP-bes1 (20 ng each) were incubated with GST-BIN2 or GST-BRI1 kinase (200 ng each) in 20 μl of kinase buffer (20 mM Tris [pH 7.5], 100 mM NaCl, and 12 mM MgCl2) and 10 μCi ^32P-γATP. After incubation at 37° C. for 40 min, the reactions were stopped by adding 20 μl of 2×SDS buffer and boiling at 94° C. for 5 min. Proteins were resolved by a PAGE gel and phosphorylation was detected by exposing the dried gel to X-ray film. […]
# Besides BIN2, nine additional GSK-3 kinases (also designated ASKs for Arabidopsis SHAGGY-related kinases) divided into four subgroups (I-IV) have been identified in Arabidopsis (Jonak and Hirt, 2002; Yoo et al. 2006). To determine the specificity of abrasin, its effect on the kinase activity of all ASKs was analyzed with myelin basic protein (MBP) as a general substrate. […]
structure (smiles),measurement,setting,value
"O=C(O)CCC(=O)Nc1ccc(Br)cn1 [abrasin, 4-[(5-bromo-2-pyridinyl)amino]-4-oxobutanoic acid]",phenotype change of soil-grown mutant,[1],sufficient to slightly change the phenotype of 1 month-old bri1-116 plants in a week
same,expression of genes downstream of the BRI1 receptor,"[2]; 30 μM, 2 hours",all genes are upregulated
same,expression of genes involved in biosynthesis and perception,"[2]; 30 μM, 2 hours",regulated in the same way as a BL-treatment
same,"RNA levels of BR biosynthetic, signaling and BR-induced genes","[2]; 3-day-old seedlings, Abrasin 30 μM, 6 hours, compared to BL 1 μM",the expression profiles resembled closely those of BL treatment
same,residual activity,[3],1-2
